Oligonucleotides are written 5' to 3', each unit as a sugar letter and its base; * is a phosphorothioate linkage, no mark a phosphodiester; rarer units and linkages stand in square brackets, end groups in braces. Plain capitals give the bases only. d = 2'-deoxy (DNA); r = 2'-OH (RNA)
Note: test concentration or dose not given here.

One data set concerns the target UBE2B. In words: reporter assay of Huesken 2005. The note with it: siRNA. (In general: In a reporter assay the amount or activity of a reporter protein is the signal.)
As for “sense rUrGrGrArUrGrArArCrCrGrArArUrCrCrUrArAdTdT / antisense rUrUrArGrGrArUrUrCrGrGrUrUrCrArUrCrCrAdGdC”, the normalised inhibition (eCFP-eYFP dual reporter) came to 74.3%. The same measure, in the same setting: the same measure for “sense rUrUrArArArCrUrArGrUrArArUrArGrArArUrUdTdT / antisense rArArUrUrCrUrArUrUrArCrUrArGrUrUrUrArAdAdA”: 46.7%; for “sense rUrUrCrArUrCrCrArArArUrGrUrGrUrArUrGrCdTdT / antisense rGrCrArUrArCrArCrArUrUrUrGrGrArUrGrArAdAdC”: 46%.

Substance “sense rUrUrUrCrArArGrCrGrGrUrUrArCrArArGrArGdTdT / antisense rCrUrCrUrUrGrUrArArCrCrGrCrUrUrGrArArAdTdC” registered a normalised inhibition (eCFP-eYFP dual reporter) of 45.5%. “sense rUrUrUrCrUrGrArArGrArArUrArUrCrCrArArAdTdT / antisense rUrUrUrGrGrArUrArUrUrCrUrUrCrArGrArArAdAdT” displayed a normalised inhibition (eCFP-eYFP dual reporter) of 82.5%.

Turning to “sense rUrUrUrUrCrUrGrArArGrArArUrArUrCrCrArAdTdT / antisense rUrUrGrGrArUrArUrUrCrUrUrCrArGrArArArAdTdT”, the normalised inhibition (eCFP-eYFP dual reporter) stood at 85.3%.

A further data set addresses UBE2S. The data set is described as follows: reporter assay of Huesken 2005. The note with it: siRNA.
In the case of “sense rArArCrUrArCrGrArGrGrArGrUrArUrGrCrArGdTdT / antisense rCrUrGrCrArUrArCrUrCrCrUrCrGrUrArGrUrUdCdT”, the normalised inhibition (eCFP-eYFP dual reporter) came to 40%.

Take “sense rArArGrArUrCrUrUrCrCrArCrCrCrGrArArCrGdTdT / antisense rCrGrUrUrCrGrGrGrUrGrGrArArGrArUrCrUrUdGdG”: the normalised inhibition (eCFP-eYFP dual reporter) is 60.4%. On the same count and under the same terms, the result for “sense rArArGrGrUrCrUrUrUrCrCrCrArArCrGrArGrGdTdT / antisense rCrCrUrCrGrUrUrGrGrGrArArArGrArCrCrUrUdGdA” reads 53%. In the case of “sense rArCrArCrGrUrArCrUrGrCrUrGrArCrCrArUrCdTdT / antisense rGrArUrGrGrUrCrArGrCrArGrUrArCrGrUrGrUdCdG”, the normalised inhibition (eCFP-eYFP dual reporter) stood at 59.3%. Same read-out and setting: the same measure for “sense rArCrCrCrCrArUrArUrGrCrUrGrGrArGrGrUrCdTdT / antisense rGrArCrCrUrCrCrArGrCrArUrArUrGrGrGrGrUdCdC”: 49.9%; for “sense rArCrCrCrGrArUrGrGrCrArUrCrArArGrGrUrCdTdT / antisense rGrArCrCrUrUrGrArUrGrCrCrArUrCrGrGrGrUdGdG”: 66.4%. Same read-out and setting: the same measure for “sense rArCrGrArGrGrArGrGrCrGrGrGrCrCrGrCrCrUdTdT / antisense rArGrGrCrGrGrCrCrCrGrCrCrUrCrCrUrCrGrUdTdG”: 44.3%. On the same count and under the same terms, the result for “sense rArCrGrGrCrUrGrArGrCrUrGrGrGrCrArUrCrCdTdT / antisense rGrGrArUrGrCrCrCrArGrCrUrCrArGrCrCrGrUdCdC” reads 52.3%; that for “sense rArCrUrGrArCrCrGrCrArGrArCrCrCrArCrCrCdTdT / antisense rGrGrGrUrGrGrGrUrCrUrGrCrGrGrUrCrArGrUdGdT”, 43.6%.

Regarding “sense rArGrCrCrGrGrUrCrGrGrGrCrCrCrUrGrGrCrCdTdT / antisense rGrGrCrCrArGrGrGrCrCrCrGrArCrCrGrGrCrUdTdC”, the normalised inhibition (eCFP-eYFP dual reporter) is 43%. Regarding “sense rArGrCrUrUrCrCrUrCrCrArCrCrGrArCrCrCrUdTdT / antisense rArGrGrGrUrCrGrGrUrGrGrArGrGrArArGrCrUdTdC”, the normalised inhibition (eCFP-eYFP dual reporter) is 49.4%.

“sense rArGrGrArCrUrUrCrCrCrUrGrCrCrUrCrCrCrCdTdT / antisense rGrGrGrGrArGrGrCrArGrGrGrArArGrUrCrCrUdTdC” yielded a normalised inhibition (eCFP-eYFP dual reporter) of 55.2%.

As to “sense rArGrGrGrCrCrGrArArGrCrCrGrGrUrCrGrGrGdTdT / antisense rCrCrCrGrArCrCrGrGrCrUrUrCrGrGrCrCrCrUdGdC”, the normalised inhibition (eCFP-eYFP dual reporter) amounted to 49.1%. On the same count and under the same terms, the result for “sense rArGrGrGrGrArCrCrCrCrArUrArUrGrCrUrGrGdTdT / antisense rCrCrArGrCrArUrArUrGrGrGrGrUrCrCrCrCrUdCdA” reads 36.5%; that for “sense rArGrUrArUrGrCrArGrCrUrCrGrGrGrCrCrCrGdTdT / antisense rCrGrGrGrCrCrCrGrArGrCrUrGrCrArUrArCrUdCdC”, 49.8%; that for “sense rArGrUrGrCrCrUrGrCrUrGrArUrCrCrArCrCrCdTdT / antisense rGrGrGrUrGrGrArUrCrArGrCrArGrGrCrArCrUdTdG”, 55.7%. In the case of “sense rArUrCrUrUrCrCrArCrCrCrGrArArCrGrUrGrGdTdT / antisense rCrCrArCrGrUrUrCrGrGrGrUrGrGrArArGrArUdCdT”, the normalised inhibition (eCFP-eYFP dual reporter) was found to be 31.6%. The same measure, in the same setting: the result for “sense rArUrGrCrUrGrGrCrGrArGrCrGrCrGrArUrArAdTdT / antisense rUrUrArUrCrGrCrGrCrUrCrGrCrCrArGrCrArUdGdC” reads 71.3%; that for “sense rArUrGrGrCrArUrCrArArGrGrUrCrUrUrUrCrCdTdT / antisense rGrGrArArArGrArCrCrUrUrGrArUrGrCrCrArUdCdG”, 56.5%; that for “sense rCrArArGrUrGrCrCrUrGrCrUrGrArUrCrCrArCdTdT / antisense rGrUrGrGrArUrCrArGrCrArGrGrCrArCrUrUrGdAdT”, 63.5%. The same measure, in the same setting: the result for “sense rCrArCrCrCrArArGrGrGrCrUrArCrUrUrCrCrUdTdT / antisense rArGrGrArArGrUrArGrCrCrCrUrUrGrGrGrUrGdGdG” reads 81.5%. The same measure, in the same setting: the same measure for “sense rCrCrArCrCrCrArArGrGrGrCrUrArCrUrUrCrCdTdT / antisense rGrGrArArGrUrArGrCrCrCrUrUrGrGrGrUrGrGdGdG”: 54.7%; for “sense rCrCrArCrCrCrGrArUrGrGrCrArUrCrArArGrGdTdT / antisense rCrCrUrUrGrArUrGrCrCrArUrCrGrGrGrUrGrGdGdT”: 47.2%. Regarding “sense rCrCrCrArArCrGrArGrGrArGrGrArCrCrUrCrAdTdT / antisense rUrGrArGrGrUrCrCrUrCrCrUrCrGrUrUrGrGrGdAdA”, the normalised inhibition (eCFP-eYFP dual reporter) worked out at 54%. As for “sense rCrCrCrGrUrCrUrGrCrUrCrArCrArGrArGrArUdTdT / antisense rArUrCrUrCrUrGrUrGrArGrCrArGrArCrGrGrGdCdC”, the normalised inhibition (eCFP-eYFP dual reporter) stood at 70.1%. “sense rCrCrCrUrGrArGrGrGrGrArCrCrCrCrArUrArUdTdT / antisense rArUrArUrGrGrGrGrUrCrCrCrCrUrCrArGrGrGdCdC”: the normalised inhibition (eCFP-eYFP dual reporter) was determined as 46.5%.

As for “sense rCrCrGrArArCrGrUrGrGrGrCrGrCrCrArArUrGdTdT / antisense rCrArUrUrGrGrCrGrCrCrCrArCrGrUrUrCrGrGdGdT”, the normalised inhibition (eCFP-eYFP dual reporter) was determined as 44.9%. On to “sense rCrCrUrGrArGrGrGrGrArCrCrCrCrArUrArUrGdTdT / antisense rCrArUrArUrGrGrGrGrUrCrCrCrCrUrCrArGrGdGdC”, for which the normalised inhibition (eCFP-eYFP dual reporter) came to 25.2%. The same measure, in the same setting: the same measure for “sense rCrCrUrGrCrUrCrUrUrGrGrArGrArArCrUrArCdTdT / antisense rGrUrArGrUrUrCrUrCrCrArArGrArGrCrArGrGdCdG”: 70.7%; for “sense rCrGrArGrUrCrUrGrCrArCrUrCrArArCrGrArGdTdT / antisense rCrUrCrGrUrUrGrArGrUrGrCrArGrArCrUrCrGdGdG”: 70.6%. In turn, “sense rCrGrCrArGrArCrCrCrArCrCrCrGrArUrGrGrCdTdT / antisense rGrCrCrArUrCrGrGrGrUrGrGrGrUrCrUrGrCrGdGdT” gave a normalised inhibition (eCFP-eYFP dual reporter) of 51.5%. The same measure, in the same setting: the result for “sense rCrGrGrUrCrGrGrGrCrCrCrUrGrGrCrCrArGrUdTdT / antisense rArCrUrGrGrCrCrArGrGrGrCrCrCrGrArCrCrGdGdC” reads 41.5%; that for “sense rCrGrUrCrArArCrGrUrGrCrUrCrArArGrArGrGdTdT / antisense rCrCrUrCrUrUrGrArGrCrArCrGrUrUrGrArCrGdCdA”, 63.1%; that for “sense rCrUrCrCrArCrCrGrArCrCrCrUrGrGrGrGrCrCdTdT / antisense rGrGrCrCrCrCrArGrGrGrUrCrGrGrUrGrGrArGdGdA”, 44%. As to “sense rCrUrCrGrGrGrCrCrCrGrUrCrUrGrCrUrCrArCdTdT / antisense rGrUrGrArGrCrArGrArCrGrGrGrCrCrCrGrArGdCdT”, the normalised inhibition (eCFP-eYFP dual reporter) is 55%. The same measure, in the same setting: the same measure for “sense rCrUrGrCrGrUrCrArArCrGrUrGrCrUrCrArArGdTdT / antisense rCrUrUrGrArGrCrArCrGrUrUrGrArCrGrCrArGdAdT”: 67.8%; for “sense rCrUrGrCrUrCrArCrArGrArGrArUrCrCrArCrGdTdT / antisense rCrGrUrGrGrArUrCrUrCrUrGrUrGrArGrCrArGdAdC”: 54.8%.

“sense rCrUrGrGrCrGrArGrCrGrCrGrArUrArArGrArAdTdT / antisense rUrUrCrUrUrArUrCrGrCrGrCrUrCrGrCrCrArGdCdA” registered a normalised inhibition (eCFP-eYFP dual reporter) of 82.4%. As to “sense rCrUrGrGrGrGrArArGrGrArCrUrUrCrCrCrUrGdTdT / antisense rCrArGrGrGrArArGrUrCrCrUrUrCrCrCrCrArGdCdA”, the normalised inhibition (eCFP-eYFP dual reporter) turned out to be 40.4%.

“sense rCrUrUrUrCrCrCrArArCrGrArGrGrArGrGrArCdTdT / antisense rGrUrCrCrUrCrCrUrCrGrUrUrGrGrGrArArArGdAdC”: the normalised inhibition (eCFP-eYFP dual reporter) came to 33.9%. Same read-out and setting: the result for “sense rGrArCrArCrGrUrArCrUrGrCrUrGrArCrCrArUdTdT / antisense rArUrGrGrUrCrArGrCrArGrUrArCrGrUrGrUrCdGdG” reads 85.5%; that for “sense rGrArCrCrCrArCrCrCrGrArUrGrGrCrArUrCrAdTdT / antisense rUrGrArUrGrCrCrArUrCrGrGrGrUrGrGrGrUrCdTdG”, 61.7%. The substance “sense rGrArGrGrArGrUrArUrGrCrArGrCrUrCrGrGrGdTdT / antisense rCrCrCrGrArGrCrUrGrCrArUrArCrUrCrCrUrCdGdT” gave a normalised inhibition (eCFP-eYFP dual reporter) of 56.7%.

(Values after the OligoGym collection.)
